According to US9023789B2, “Amylin analogs and pharmaceutical compositions thereof” (Novo Nordisk A/S, priority 2012, dated 2015):
Numbered stars: 1 amine (or outer) side, 2 acyl side, 3 side chain; on linkers, the order of the positions; unused ones are H or OH. Bridge positions count the residues as written; N and C are the ends. Side chains are listed from the residue outwards. Peptide text beside a SMILES is read from it. * marks the point of attachment. C20 diacid = O=C(O)CCCCCCCCCCCCCCCCCCC(=O)*; γGlu = O=C(O)[C@H](CCC(=O)[*:2])N[*:1]

Experiments:
Sprague Dawley (SD) rats = assay: ASSAY (I) efficacy testing on appetite (food intake) using an ad libitum fed rat model; type: in vivo; settings: rat, 30 nmol/kg
Summary of the method: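 Individual food consumption was logged each hour up to 7 h and again at 24 h, occasionally 48 h, with Grubbs-test outliers removed. Each 200–250 g Sprague Dawley rat, free-feeding in its home cage under reversed lighting, received a single ip, po or sc dose of 0.01–3 mg/kg at lights-off, alongside a vehicle group.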

[1] = ASSAY (III) ThT fibrillation assay for physical stability; type: physicochemical
Summary of the method: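 Physical stability scored by ThT fluorescence (444 nm excitation, 485 nm emission) tracked every 20 min during 37 °C incubation with 960 rpm shaking, ThT at 1 μM final. Values are replicate means with SD at chosen times; HPLC against pramlintide standard gives initial and post-assay soluble concentrations.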

[2] = biological target: T1, human calcitonin receptor (Homo sapiens, UniProt P30988); assay: ASSAY (VII) binding to the human calcitonin receptor (SPA, 125I-Calcitonin); settings: read-out: hCTR bind IC50;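 also: cell membranes (35 ng/µL) combined with SPA beads in 40 µL of pH 7.4 Hepes buffer, 384-well format, signal counted on a TopCounter instrument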
T1 construct: expressed in transfected cells
T1 sequence (P30988 25-474): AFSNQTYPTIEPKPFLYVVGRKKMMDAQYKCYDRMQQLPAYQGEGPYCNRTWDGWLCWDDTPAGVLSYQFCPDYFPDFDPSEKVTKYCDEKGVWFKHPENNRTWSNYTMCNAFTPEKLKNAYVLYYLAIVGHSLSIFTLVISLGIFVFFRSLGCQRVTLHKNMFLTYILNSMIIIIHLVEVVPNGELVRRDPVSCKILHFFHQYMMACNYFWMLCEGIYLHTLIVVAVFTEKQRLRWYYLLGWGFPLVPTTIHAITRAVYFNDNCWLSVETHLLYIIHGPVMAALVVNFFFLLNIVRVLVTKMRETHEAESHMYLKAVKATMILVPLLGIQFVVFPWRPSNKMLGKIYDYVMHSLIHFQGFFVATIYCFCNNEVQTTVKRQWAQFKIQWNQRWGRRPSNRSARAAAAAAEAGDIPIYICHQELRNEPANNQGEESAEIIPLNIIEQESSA

ThT pH 4.0 lag time (h) [1] [h] | IC50 [2] [nM] | Structure (SMILES) | Food intake reduction 0-24 h 30 nmol/kg (%) (Sprague Dawley (SD) rats) | Food intake reduction 24-48 h 30 nmol/kg (%) (Sprague Dawley (SD) rats)
45 | 19.3 | CC[C@H](C)[C@H](NC(=O)[C@H](C)NC(=O)CNC(=O)[C@H](Cc1ccccc1)NC(=O)[C@H](CC(N)=O)NC(=O)[C@@H]1CCCN1C(=O)[C@H](CO)NC(=O)[C@H](CO)NC(=O)[C@H](Cc1c[nH]cn1)NC(=O)[C@H](CCCNC(=N)N)NC(=O)[C@H](CC(C)C)NC(=O)[C@H](Cc1ccccc1)NC(=O)[C@H](CC(N)=O)NC(=O)[C@H](C)NC(=O)[C@H](CC(C)C)NC(=O)[C@H](CCCNC(=N)N)NC(=O)[C@H](CCC(N)=O)NC(=O)[C@@H](NC(=O)[C@H](C)NC(=O)[C@@H]1CSSC[C@H](NC(=O)[C@H](CCCCN)NC(=O)CC[C@H](NC(=O)CCCCCCCCCCCCCCCCCCC(=O)O)C(=O)O)C(=O)N[C@@H](CC(N)=O)C(=O)N[C@@H]([C@@H](C)O)C(=O)N[C@@H](C)C(=O)N[C@@H]([C@@H](C)O)C(=O)N1)[C@@H](C)O)C(=O)N1CCC[C@H]1C(=O)N[C@@H](CO)C(=O)N[C@@H](CO)C(=O)N[C@H](C(=O)N[C@@H](CC(N)=O)C(=O)N[C@H](C(=O)NCC(=O)N[C@@H](CCCNC(=N)N)C(=O)N[C@@H](CC(N)=O)C(=O)N[C@H](C(=O)N[C@@H](Cc1ccc(O)cc1)C(N)=O)[C@@H](C)O)C(C)C)[C@@H](C)O [Example 39] ({C20 diacid-γGlu}-KCNTATCATQRLANFLRHSSPNFGAIPSSTNVGRNTY-NH2; disulfide 2-7) | 36 | 8
43 | 32.5 | CC[C@H](C)[C@H](NC(=O)[C@H](C)NC(=O)CNC(=O)[C@H](Cc1ccccc1)NC(=O)[C@H](CC(N)=O)NC(=O)[C@@H]1CCCN1C(=O)[C@H](CO)NC(=O)[C@H](CO)NC(=O)[C@H](Cc1c[nH]cn1)NC(=O)[C@H](CCCNC(=N)N)NC(=O)[C@H](CC(C)C)NC(=O)[C@H](Cc1ccccc1)NC(=O)[C@H](CCC(=O)O)NC(=O)[C@H](C)NC(=O)[C@H](CC(C)C)NC(=O)[C@H](CCCNC(=N)N)NC(=O)[C@H](CCC(N)=O)NC(=O)[C@@H](NC(=O)[C@H](C)NC(=O)[C@@H]1CSSC[C@H](NC(=O)[C@@H](N)CCCCNC(=O)CC[C@H](NC(=O)CC[C@H](NC(=O)CCCCCCCCCCCCCCCCCCC(=O)O)C(=O)O)C(=O)O)C(=O)N[C@@H](CC(N)=O)C(=O)N[C@@H]([C@@H](C)O)C(=O)N[C@@H](C)C(=O)N[C@@H]([C@@H](C)O)C(=O)N1)[C@@H](C)O)C(=O)N1CCC[C@H]1C(=O)N[C@@H](CO)C(=O)N[C@@H](CO)C(=O)N[C@H](C(=O)N[C@@H](CC(N)=O)C(=O)N[C@H](C(=O)NCC(=O)N[C@@H](CO)C(=O)N[C@@H](CCCNC(=N)N)C(=O)N[C@H](C(=O)N[C@@H](Cc1ccc(O)cc1)C(N)=O)[C@@H](C)O)C(C)C)[C@@H](C)O [Example 89] (H-K([γGlu-γGlu-C20 diacid])CNTATCATQRLAEFLRHSSPNFGAIPSSTNVGSRTY-NH2; disulfide 2-7 (inferred); N-terminus assumed) | 46 | 37
32 | 133 | CC[C@H](C)[C@H](NC(=O)[C@H](C)NC(=O)CNC(=O)[C@H](Cc1ccccc1)NC(=O)[C@H](CC(N)=O)NC(=O)[C@@H]1CCCN1C(=O)[C@H](CO)NC(=O)[C@H](CO)NC(=O)[C@H](Cc1c[nH]cn1)NC(=O)[C@H](CCCNC(=N)N)NC(=O)[C@H](CC(C)C)NC(=O)[C@H](Cc1ccccc1)NC(=O)[C@H](CC(N)=O)NC(=O)[C@H](C)NC(=O)[C@H](CC(C)C)NC(=O)[C@H](CCCNC(=N)N)NC(=O)[C@H](CCC(N)=O)NC(=O)[C@@H](NC(=O)[C@H](C)NC(=O)[C@@H]1CSSC[C@H](NC(=O)[C@@H](N)CCCCNC(=O)CC[C@H](NC(=O)CC[C@H](NC(=O)CCCCCCCCCCCCCCCCCCC(=O)O)C(=O)O)C(=O)O)C(=O)N[C@@H](CC(N)=O)C(=O)N[C@@H]([C@@H](C)O)C(=O)N[C@@H](C)C(=O)N[C@@H]([C@@H](C)O)C(=O)N1)[C@@H](C)O)C(=O)N1CCC[C@H]1C(=O)N[C@@H](CO)C(=O)N[C@@H](CO)C(=O)N[C@H](C(=O)N[C@@H](CC(N)=O)C(=O)N[C@H](C(=O)NCC(=O)N[C@@H](Cc1c[nH]cn1)C(=O)N[C@@H](CC(N)=O)C(=O)N[C@H](C(=O)N[C@@H](Cc1ccc(O)cc1)C(N)=O)[C@@H](C)O)C(C)C)[C@@H](C)O [Example 86] (H-K([γGlu-γGlu-C20 diacid])CNTATCATQRLANFLRHSSPNFGAIPSSTNVGHNTY-NH2; disulfide 2-7) | 48 | 26
14 | 3.44 | CC[C@H](C)[C@H](NC(=O)[C@H](C)NC(=O)CNC(=O)[C@H](Cc1ccccc1)NC(=O)[C@H](CC(N)=O)NC(=O)[C@@H]1CCCN1C(=O)[C@H](CO)NC(=O)[C@H](CO)NC(=O)[C@H](Cc1c[nH]cn1)NC(=O)[C@H](CCCNC(=N)N)NC(=O)[C@H](CC(C)C)NC(=O)[C@H](Cc1ccccc1)NC(=O)[C@H](CO)NC(=O)[C@H](C)NC(=O)[C@H](CC(C)C)NC(=O)[C@H](CCCNC(=N)N)NC(=O)[C@H](CCC(N)=O)NC(=O)[C@@H](NC(=O)[C@H](C)NC(=O)[C@@H]1CSSC[C@H](NC(=O)[C@@H](N)CCCCNC(=O)CC[C@H](NC(=O)CC[C@H](NC(=O)CCCCCCCCCCCCCCCCCCC(=O)O)C(=O)O)C(=O)O)C(=O)N[C@@H](CC(N)=O)C(=O)N[C@@H]([C@@H](C)O)C(=O)N[C@@H](C)C(=O)N[C@@H]([C@@H](C)O)C(=O)N1)[C@@H](C)O)C(=O)N1CCC[C@H]1C(=O)N[C@@H](CO)C(=O)N[C@@H](CO)C(=O)N[C@H](C(=O)N[C@@H](CC(N)=O)C(=O)N[C@H](C(=O)NCC(=O)N1CCC[C@H]1C(=O)N[C@@H](CCC(=O)O)C(=O)N[C@H](C(=O)N[C@@H](Cc1ccc(O)cc1)C(N)=O)[C@@H](C)O)C(C)C)[C@@H](C)O [Example 120] (H-K([γGlu-γGlu-C20 diacid])CNTATCATQRLASFLRHSSPNFGAIPSSTNVGPETY-NH2; disulfide 2-7 (inferred); N-terminus assumed) | 66 | 61
45 | 48.7 | CC[C@H](C)[C@H](NC(=O)[C@H](C)NC(=O)CNC(=O)[C@H](Cc1ccccc1)NC(=O)[C@H](CC(N)=O)NC(=O)[C@@H]1CCCN1C(=O)[C@H](CO)NC(=O)[C@H](CO)NC(=O)[C@H](Cc1c[nH]cn1)NC(=O)[C@H](CCCNC(=N)N)NC(=O)[C@H](CC(C)C)NC(=O)[C@H](Cc1ccccc1)NC(=O)[C@H](CC(N)=O)NC(=O)[C@H](C)NC(=O)[C@H](CC(C)C)NC(=O)[C@H](CCCNC(=N)N)NC(=O)[C@H](CCC(N)=O)NC(=O)[C@@H](NC(=O)[C@H](C)NC(=O)[C@@H]1CSSC[C@H](NC(=O)[C@@H](N)CCCCNC(=O)CC[C@H](NC(=O)CCCCCCCCCCCCCCCCCCC(=O)O)C(=O)O)C(=O)N[C@@H](CC(N)=O)C(=O)N[C@@H]([C@@H](C)O)C(=O)N[C@@H](C)C(=O)N[C@@H]([C@@H](C)O)C(=O)N1)[C@@H](C)O)C(=O)N1CCC[C@H]1C(=O)N[C@@H](CO)C(=O)N[C@@H](CO)C(=O)N[C@H](C(=O)N[C@@H](CC(N)=O)C(=O)N[C@H](C(=O)NCC(=O)N[C@@H](CO)C(=O)N[C@@H](CCCCN)C(=O)N[C@H](C(=O)N[C@@H](Cc1ccc(O)cc1)C(N)=O)[C@@H](C)O)C(C)C)[C@@H](C)O [Example 35] (H-K([γGlu-C20 diacid])CNTATCATQRLANFLRHSSPNFGAIPSSTNVGSKTY-NH2; disulfide 2-7; N-terminus assumed) | 51 | 15
45 | 6.62 | CC[C@H](C)[C@H](NC(=O)[C@H](C)NC(=O)CNC(=O)[C@H](Cc1ccccc1)NC(=O)[C@H](CC(N)=O)NC(=O)[C@@H]1CCCN1C(=O)[C@H](CO)NC(=O)[C@H](CO)NC(=O)[C@H](Cc1c[nH]cn1)NC(=O)[C@H](CCCNC(=N)N)NC(=O)[C@H](CC(C)C)NC(=O)[C@H](Cc1ccccc1)NC(=O)[C@H](CCC(=O)O)NC(=O)[C@H](C)NC(=O)[C@H](CC(C)C)NC(=O)[C@H](CCCNC(=N)N)NC(=O)[C@H](CCC(N)=O)NC(=O)[C@@H](NC(=O)[C@H](C)NC(=O)[C@@H]1CSSC[C@H](NC(=O)[C@@H](N)CCCCNC(=O)CC[C@H](NC(=O)CCCCCCCCCCCCCCCCCCC(=O)O)C(=O)O)C(=O)N[C@@H](CC(N)=O)C(=O)N[C@@H]([C@@H](C)O)C(=O)N[C@@H](C)C(=O)N[C@@H]([C@@H](C)O)C(=O)N1)[C@@H](C)O)C(=O)N1CCC[C@H]1C(=O)N[C@@H](CO)C(=O)N[C@@H](CO)C(=O)N[C@H](C(=O)N[C@@H](CC(N)=O)C(=O)N[C@H](C(=O)NCC(=O)N[C@@H](CCCNC(=N)N)C(=O)N[C@@H](CCC(=O)O)C(=O)N[C@H](C(=O)N[C@@H](Cc1ccc(O)cc1)C(N)=O)[C@@H](C)O)C(C)C)[C@@H](C)O [Example 108] (H-K([γGlu-C20 diacid])CNTATCATQRLAEFLRHSSPNFGAIPSSTNVGRETY-NH2; disulfide 2-7; N-terminus assumed) | 29 | 0
